Data from ChEMBL document CHEMBL4028815, “Novel phosphonate analogs of sulforaphane: Synthesis, in vitro and in vivo anticancer activity” (Eur J Med Chem, 2017).
Calls of active or inactive are those of the source. No cut-off for these calls is given here.

What was measured:
[1] = test system: LoVo; test: Cell cycle arrest in human LoVo cells at 15 uM after 24 hrs by propidium iodide staining based flow cytometric method; type: functional
[2] = test system: LoVo/DX; test: Induction of apoptosis in human LoVo/DX cells assessed as loss of mitochondrial membrane potential at 15 uM after 24 hrs by JC-1 staining based flow cytometric method relative to control; type: functional
[3] = test system: LoVo; test: Cytotoxicity against human LoVo cells after 72 hrs by sulforhodamine B assay; type: functional, cell-based
[4] = test system: 4T1; test: Anti-tumor activity against mouse 4T1 cells implanted in BALB/c mdb mouse assessed as lung metastasis at 450 umol/kg, ip administered five times weekly measured at 29 days post cell innoculum (reference value: 56 +/- 25); type: functional
[5] = test system: Mus musculus; test: Toxicity in BALB/c mdb mouse implanted with mouse 4T1 cells assessed as serum creatinine level at 450 umol/kg, ip administered five times weekly measured at 29 day post cell innoculum (reference value: 9.3 +/- 1.2 umol/L); type: organism-based; details: in vivo, 696 h
[6] = test system: Mus musculus; test: Toxicity in BALB/c mdb mouse implanted with mouse 4T1 cells assessed as serum urea level at 450 umol/kg, ip administered five times weekly measured at 29 day post cell innoculum (reference value: 3.8 +/- […]); type: organism-based; details: in vivo, 696 h
[7] = test system: MES-SA/Dx5; test: Cytotoxicity against human MESSA/DX5 cells after 72 hrs by sulforhodamine B assay; type: functional, cell-based; details: MES-SA/Dx5, 72 h
[8] = test system: Mus musculus; test: Toxicity in BALB/c mdb mouse implanted with mouse 4T1 cells assessed as serum ALT level at 450 umol/kg, ip administered five times weekly measured at 29 day post cell innoculum (reference value: 23.8 +/- 2.2 U/L); type: organism-based; details: in vivo, 696 h
[9] = test system: Mus musculus; test: Toxicity in BALB/c mdb mouse implanted with mouse 4T1 cells assessed as body weight loss at 450 umol/kg, ip administered five times weekly measured on day 11; type: organism-based; details: in vivo
[10] = test system: Mus musculus; test: Toxicity in BALB/c mdb mouse implanted with mouse 4T1 cells assessed as WBC level at 450 umol/kg, ip administered five times weekly measured at 29 day post cell innoculum (reference value: 212.3 +/- 82.8 10^3/uL); type: organism-based; details: in vivo, 696 h
[11] = test system: Mus musculus; test: Toxicity in BALB/c mdb mouse implanted with mouse 4T1 cells assessed as serum PLT level at 450 umol/kg, ip administered five times weekly measured at 29 day post cell innoculum (reference value: 972 +/- 157 10^3/uL); type: organism-based; details: in vivo, 696 h
[12] = test system: MES-SA; test: Cytotoxicity against human MESSA cells after 72 hrs by sulforhodamine B assay; type: functional, cell-based
[13] = test system: LoVo/DX; test: Induction of apoptosis in human LoVo/DX cells assessed as increase in caspase3/7 activity at >15 uM using Ac-DEVD-ACC as substrate pretreated for 24 hrs followed by substrate addition measured for 2 hrs by fluorescence assay; type: functional, cell-based
[14] = Cytotoxicity against human LoVo/DX cells assessed as cell death at >15 uM after 24 hrs; type: cell-based
[15] = test system: LoVo; test: Induction of apoptosis in human LoVo cells assessed as necrotic cells at 15 uM after 24 hrs by APC-Annexin-V/propidium iodide staining based flow cytometric method (reference value: 10%); type: functional
[16] = test system: Mus musculus; test: Toxicity in BALB/c mdb mouse implanted with mouse 4T1 cells assessed as serum AST level at 450 umol/kg, ip administered five times weekly measured at 29 day post cell innoculum (reference value: 136 +/- 10.3 U/L); type: organism-based; details: in vivo, 696 h
[17] = test system: LoVo/DX; test: Induction of apoptosis in human LoVo/DX cells assessed as late apoptotic cells at 15 uM after 24 hrs by APC-Annexin-V/propidium iodide staining based flow cytometric method relative to control; type: functional
[18] = test system: A549; test: Cytotoxicity against human A549 cells after 72 hrs by sulforhodamine B assay; type: functional, cell-based; details: A549, 72 h
[19] = test system: 4T1; test: Anti-tumor activity against mouse 4T1 cells implanted in BALB/c mdb mouse assessed as tumor growth inhibition at 450 umol/kg, ip administered five times weekly measured on day 29 post cell innoculum relative to control; type: functional; details: 4T1, ip, 696 h, read-out: TGI
[20] = test system: Mus musculus; test: Toxicity in BALB/c mdb mouse implanted with mouse 4T1 cells assessed as spleen weight at 450 umol/kg, ip administered five times weekly measured at 29 day post cell innoculum (reference value: 0.603 +/- 0.133 g); type: organism-based; details: in vivo, 696 h
[21] = test system: LoVo; test: Induction of apoptosis in human LoVo cells assessed as increase in caspase3/7 activity at 15 uM using Ac-DEVD-ACC as substrate pretreated for 24 hrs followed by substrate addition measured for 2 hrs by fluorescence assay relative to control; type: functional
[22] = test system: 4T1; test: Cytotoxicity against mouse 4T1 cells after 72 hrs by sulforhodamine B assay; type: functional, cell-based; details: 4T1, 72 h
[23] = test system: LoVo; test: Induction of apoptosis in human LoVo cells assessed as increase in early apoptotic cells at 15 uM after 24 hrs by APC-Annexin-V/propidium iodide staining based flow cytometric method relative to control; type: functional
[24] = test system: Mus musculus; test: Toxicity in BALB/c mdb mouse implanted with mouse 4T1 cells assessed as body weight loss at 450 umol/kg, ip administered five times weekly measured 3 times weekly during compound dosing; type: organism-based; details: in vivo
[25] = test system: LoVo; test: Potency index, ratio of benzyl isothiocyanate IC50 to compound IC50 for human LoVo cells; type: functional
[26] = test system: LoVo; test: Induction of apoptosis in human LoVo cells assessed as loss of mitochondrial membrane potential at 15 uM after 24 hrs by JC-1 staining based flow cytometric method relative to control; type: functional
[27] = test system: Mus musculus; test: Toxicity in BALB/c mdb mouse implanted with mouse 4T1 cells assessed as hemoglobin level at 450 umol/kg, ip administered five times weekly measured at 29 day post cell innoculum (reference value: 15.1 +/- 1.5 g/dl); type: organism-based; details: in vivo, 696 h
[28] = test system: Mus musculus; test: Toxicity in BALB/c mdb mouse implanted with mouse 4T1 cells assessed as hematocrit at 450 umol/kg, ip administered five times weekly measured at 29 day post cell innoculum (reference value: 39.9 +/- 3.7 %); type: organism-based; details: in vivo, 696 h
[29] = test system: HL60/MX2; test: Cytotoxicity against human HL60/MX2 cells after 72 hrs by sulforhodamine B assay; type: functional, cell-based; details: HL60/MX2, 72 h
[30] = Induction of apoptosis in human LoVo/DX cells assessed as increase in caspase3/7 activity at 15 uM using Ac-DEVD-ACC as substrate pretreated for 24 hrs followed by substrate addition measured for 2 hrs by fluorescence assay relative to control; type: functional
[31] = test system: BALB/3T3; test: Cytotoxicity against mouse BALB/3T3 cells after 72 hrs by sulforhodamine B assay; type: cell-based; details: BALB/3T3, 72 h
[32] = test system: Mus musculus; test: Nephrotoxicity in BALB/c mdb mouse implanted with mouse 4T1 cells assessed as kidney weight at 450 umol/kg, ip administered five times weekly measured at 29 day post cell innoculum (reference value: 0.136 +/- 0.006 g); type: toxicity, organism-based; details: in vivo, 696 h
[33] = test system: Mus musculus; test: Hepatotoxicity in BALB/c mdb mouse implanted with mouse 4T1 cells assessed as liver weight at 450 umol/kg, ip administered five times weekly measured at 29 day post cell innoculum (reference value: 1.2 +/- 0.13 g); type: toxicity, organism-based; details: in vivo, 696 h
[34] = Cytotoxicity against human LoVo/DX cells after 72 hrs by sulforhodamine B assay; type: functional, cell-based
[35] = test system: LoVo; test: Potency index, ratio of sulforaphane IC50 to compound IC50 for human LoVo cells; type: functional
[36] = test system: LoVo; test: Induction of apoptosis in human LoVo cells assessed as late apoptotic cells at 15 uM after 24 hrs by APC-Annexin-V/propidium iodide staining based flow cytometric method relative to control; type: functional
[37] = test system: LoVo/DX; test: Cell cycle arrest in human LoVo/DX cells at 15 uM after 24 hrs by propidium iodide staining based flow cytometric method; type: functional
[38] = test system: Mus musculus; test: Toxicity in BALB/c mdb mouse implanted with mouse 4T1 cells assessed as RBC level at 450 umol/kg, ip administered five times weekly measured at 29 day post cell innoculum (reference value: 8.6 +/- 0.9 10^6/uL); type: organism-based; details: in vivo, 696 h
[39] = Resistance index, ratio of IC50 for human HL60/MX2 cells to IC50 for human HL60 cells; type: functional
[40] = test system: Mus musculus; test: Toxicity in BALB/c mdb mouse implanted with mouse 4T1 cells assessed as body weight loss at 450 umol/kg, ip administered five times weekly starting from day 15 post cell innoculum; type: organism-based; details: in vivo
[41] = test system: LoVo; test: Induction of apoptosis in human LoVo cells assessed as increase in caspase3/7 activity at >15 uM using Ac-DEVD-ACC as substrate pretreated for 24 hrs followed by substrate addition measured for 2 hrs by fluorescence assay; type: functional, cell-based
[42] = test system: HL-60; test: Cytotoxicity against human HL60 cells after 72 hrs by sulforhodamine B assay; type: functional, cell-based; details: HL-60, 72 h
[43] = test system: LoVo; test: Cytotoxicity against human LoVo cells assessed as cell death at >15 uM after 24 hrs; type: cell-based
[44] = test system: Mus musculus; test: Toxicity in BALB/c mdb mouse implanted with mouse 4T1 cells assessed as lung weight at 450 umol/kg, ip administered five times weekly measured at 29 day post cell innoculum (reference value: 0.2 +/- 0.018 g); type: organism-based; details: in vivo, 696 h
[45] = test system: 4T1; test: Anti-tumor activity against mouse 4T1 cells implanted in BALB/c mdb mouse assessed as tumor growth inhibition at 25 umol/kg, ip administered 3 times weekly measured on day 29 post cell innoculum relative to control; details: 4T1, ip, 696 h, read-out: TGI
[46] = Potency index, ratio of benzyl isothiocyanate IC50 to compound IC50 for human LoVo/DX cell; type: functional
[47] = Potency index, ratio of sulforaphane IC50 to compound IC50 for human LoVo/DX cell; type: functional

## CCOP(=O)(CCCCCCN=C=S)OCC
[1]
  Activity: Active
[2]
  Activity: Active
[3]
  IC50: 2.1 µM
[4]
  Activity: 62
[5]
  Activity: 9.3 µmol/L
[6]
  Activity: 4.6 mmol/L
[7]
  IC50: 9.9 µM
[8]
  Activity: 28.2 U/L
[9]
  Activity: > 5%
[10]
  Activity: 201.2 ×10³ /uL
[11]
  Activity: 751 ×10³ /uL
[12]
  IC50: 10.4 µM
[13]
  Activity: inactive
[14]
  Activity: Toxic
[15]
  Activity: Active
[16]
  Activity: 142.5 U/L
[17]
  Activity: inactive
[18]
  IC50: 11.7 µM
[19]
  inhibition in vivo at 450 µmol/kg: 7.1%
[20]
  Activity: 0.493 g
[21]
  fold change (FC): 3
[22]
  IC50: 3.1 µM
[23]
  Activity: inactive
[24]
  Activity: <= 10%
[25]
  Ratio IC50: 5
[26]
  Activity: Active
[27]
  Activity: 17.3 g/dL
[28]
  Activity: 47.7%
[29]
  IC50: 4 µM
[30]
  fold change (FC): 3
[31]
  IC50: 17.5 µM
[32]
  Activity: 0.14 g
[33]
  Activity: 1.24 g
[34]
  IC50: 3.9 µM
[35]
  Ratio IC50: 10
[36]
  Activity: inactive
[37]
  Activity: Active
[38]
  Activity: 10.1 ×10⁶ /uL
[39]
  Ratio IC50: 7.8
[40]
  Activity: Non-Toxic
[41]
  Activity: inactive
[42]
  IC50: 0.5 µM
[43]
  Activity: Toxic
[44]
  Activity: 0.219 g

## O=P1(N(CCCl)CCCl)NCCCO1 (stereo unspecified) [CYCLOPHOSPHAMIDE ANHYDROUS]
[45]
  inhibition in vivo at 25 µmol/kg: 33.3%

## CC(C)COP(=O)(CCN=C=S)OCC(C)C
[3]
  IC50: 1.9 µM
[25]
  Ratio IC50: 5
[46]
  Ratio IC50: 5
[34]
  IC50: 2.6 µM
[35]
  Ratio IC50: 10
[47]
  Ratio IC50: 10
